Reference: ChEMBL document CHEMBL2375305, “Synthesis of novel triterpene and N-allylated/N-alkylated niacin hybrids as α-glucosidase inhibitors” (Eur J Med Chem, 2013)
Active and inactive are the calls of the source. The rule behind the calls is not given here.

Assays:
[1] = species on record: Homo sapiens; test: Inhibition of alpha-glucosidase (unknown origin) using PNPG as substrate at 100 uM incubated for 10 mins prior to substrate addition measured every 30 secs for 5 mins relative to control
[2] = system: Rattus norvegicus; test: Antihyperglycemic activity in sucrose-loaded STZ-induced diabetic rat model assessed as reduction in blood glucose level at 100 mg/kg, po administered 30 mins followed by sucrose administration measured after 5 hrs relative to vehicle-treated control; type: functional; set-up: scale not given: the % may be the effect or the level left
[3] = species on record: Homo sapiens; test: Ratio of compound activity to acarbose activity for inhibition of alpha-glucosidase (unknown origin)
[4] = species on record: Homo sapiens; test: Binding affinity to alpha-glucosidase (unknown origin) assessed as loss in secondary structure at 50 to 250 uM measured every 1 sec for 1 to 2 mins by CD spectroscopic analysis
[5] = (§1) Inhibition of alpha-glucosidase (unknown origin) using PNPG as substrate incubated for 10 mins prior to substrate addition measured every 30 secs for 5 mins relative to control; set-up: species or system Homo sapiens
[6] = species on record: Homo sapiens; test: as §1
[7] = species on record: Homo sapiens; test: Non-competitive inhibition of alpha-glucosidase (unknown origin) using PNPG as substrate at 2 to 6 uM by Lineweaver-Burk plot analysis

Row | SMILES | inhibition [1] [%] | inhibition [6] | further results
1 | C=C(C)[C@@H]1CC[C@]2(C)CC[C@]3(C)[C@@H](CC[C@@H]4[C@@]5(C)CC[C@H](OC(=O)c6ccc[n+](C/C=C(\C)CCC=C(C)C)c6)C(C)(C)[C@@H]5CC[C@]43C)[C@H]12 | 3.8 | – | –
2 | C=C(C)[C@@H]1CC[C@]2(C)CC[C@]3(C)[C@@H](CC[C@@H]4[C@@]5(C)CC[C@H](OC(=O)c6ccc[n+](CCCCCCCCCCCCCCCC)c6)C(C)(C)[C@@H]5CC[C@]43C)[C@H]12 | 4.5 | – | –
3 | C=C(C)[C@@H]1CCC2(C)CC[C@]3(C)[C@@H](CC[C@@H]4[C@@]5(C)CC[C@H](OC(=O)c6ccc[n+](CCCCCCCCCCCC)c6)C(C)(C)[C@@H]5CC[C@]43C)[C@H]12 (single isomer, unassigned) | 8.8 | – | –
4 | CC(C)=CC[n+]1cccc(C(=O)O[C@H]2CC[C@]3(C)[C@H]4CC=C5[C@@H]6[C@@H](C)[C@H](C)CC[C@]6(C)CC[C@@]5(C)[C@]4(C)CC[C@H]3C2(C)C)c1.[Br-] | – | Dose-dependent effect | Activity [2]: 19.9%; Ratio [3]: 10; Activity [4]: Active; IC50 [5]: 5 µM; inhibition [7]: Active
5 | CCCCCCCCCCCCCCCC[n+]1cccc(C(=O)O[C@H]2CC[C@]3(C)[C@H]4CC=C5[C@@H]6[C@@H](C)[C@H](C)CC[C@]6(C)CC[C@@]5(C)[C@]4(C)CC[C@H]3C2(C)C)c1 | – | Dose-dependent effect | –
6 | CCCCCCCCCCCC[n+]1cccc(C(=O)O[C@H]2CC[C@]3(C)[C@H]4CC=C5[C@@H]6[C@@H](C)[C@H](C)CC[C@]6(C)CC[C@@]5(C)[C@]4(C)CC[C@H]3C2(C)C)c1 | – | Dose-dependent effect | –
7 | CCCCCCCCCCCCC[n+]1cccc(C(=O)O[C@H]2CC[C@]3(C)[C@H]4CC=C5[C@@H]6[C@@H](C)[C@H](C)CC[C@]6(C)CC[C@@]5(C)[C@]4(C)CC[C@H]3C2(C)C)c1 | – | Dose-dependent effect | –
8 | C=C(C)[C@@H]1CC[C@]2(C)CC[C@]3(C)[C@@H](CC[C@@H]4[C@@]5(C)CC[C@H](OC(=O)c6ccc[n+](CC=C(C)C)c6)C(C)(C)[C@@H]5CC[C@]43C)[C@H]12 | -4.4 | – | –
